{"source": "patent US20240123022A1", "about": "“A STABLE ANTI-ANGIOGENIC AND ANTI-INFLAMMATORY PHARMACEUTICAL FORMULATION AND PHARMACEUTICAL COMBINATION FOR TREATMENT AND PREVENTION OF PSORIASIS” (priority 2021, published 2024)", "key": {"[1]": {"system": "Human endothelial cells (EA.hy.926)", "experiment": "Tube formation assay in EA.hy.926 cells", "format": "cell-based", "method": "This assay was performed to determine ability of various compounds to promote or inhibit tube formation. Compounds that are able to inhibit tube formation could be useful in various diseases, such as cancer, where tumors stimulate new blood vessel formation to receive oxygen and nutrients in order to grow beyond a relatively small size.\nHuman endothelial cells (EA.hy.926) grown in DMEM and about 10% FBS were used as test system to determine angiogenic effect of IS217 by assessing inhibitory effects of test item on endothelial cells tube formation.\nPrior to the tube formation assay, test item of concentration ranging 1 μg/ml, 10 μg/ml, 100 μg/ml, 500 μg/ml and 1000 μg/ml were used to treat endothelial cells for its cytotoxicity effect to assess suitable concentration for tube formation assay. The cells corresponding to positive control group were treated with paclitaxel. Anthralin was also used as positive control for in house validation.\nAfter about 24 hours of incubation in CO2 incubator, 20 μl of 5 mg/ml of MTT was added to identify percentage cytotoxicty by biotek synergy HT plate reader. After that cells were processed for tube formation assay with selected concentrations of TI. The degree of angiogenesis progression was assessed based on visual pattern recognition of photomicrographs of EA.hy.926 cells."}, "EA.hy926 cells": {"system": "EA.hy926 cells", "experiment": "Induction of DNA fragmentation in human endothelial cell line", "format": "cell-based", "method": "EA.hy926 cells, a well reported in vitro model to study the anti-angiogenic potential used for assessing apoptotic effect of IS217 through induction of DNA fragmentation. Cell conditions were maintained using DMEM, about 10% FBS, CO2 incubator and serum starved using 1% FBS. The starved cells were treated with IS217 in the concentrations of 100 μg/ml, 500 μg/ml, 1000 μg/ml, 2000 μg/ml, 5000 μg/ml and incubated for about 48 hours. Anthralin in concentrations of 0.1 μM and 0.5 μM was used as positive control.\nThe fragmented DNA after lysis was precipitated using PEG/NaCl solution and incubated with 0.2 μg/ml of Hoechst 33258 dye, fluorescence was read at 360 ex/460 em using Biotek synergy HT multimode reader."}, "JAK-STAT pathway": {"system": "JAK-STAT pathway", "experiment": "Z′LYTE activity assay, tyrosine kinases", "format": "biochemical", "source_text": "(§1) Tyrosine kinases play key role in pathogenesis of psoriasis IS217 was investigated for possible inhibition of various tyrosine kinase, which play crucial role in pathogenesis of psoriasis. The method employed to detect the effect was Z′LYTE activity assay."}, "MAPK1 (MEK 1)": {"system": "MAPK1 (MEK 1)", "experiment": "Z′LYTE activity assay, tyrosine kinases", "format": "biochemical", "conditions": "10 μg/ml-250 μg/ml", "source_text": "as §1"}, "other kinases": {"system": "other kinases", "experiment": "Z′LYTE activity assay, tyrosine kinases", "format": "biochemical", "conditions": "low concentration tested of 10 μg/ml", "source_text": "as §1"}, "[2]": {"system": "Salmonella typhimurium tester strains", "experiment": "Bacterial reverse mutation test", "format": "cell-based", "conditions": "five tester strains, upto 1000 μg/plate, with and without metabolic activation", "source_text": "17.1: Bacterial Reverse Mutation Test in Salmonella typhimurium Tester Strains:\nThis was confirmed by in vivo studies which are mandatory for any drug, as a part of safety toxicological studies."}, "[3]": {"system": "isolated rabbit erythrocyte", "format": "cell-based", "method": "This study was conducted to test whether IS217 induced haemolysis or not. The study was conducted in IV intended concentration."}, "[4]": {"experiment": "Pre-formulation stability and maximum feasible concentration", "format": "physicochemical", "method": "This study is important in CMC preparation of any drug. The study was conducted to develop suitable pre-formulations of IS217 for four administration routes selected for in vivo studies and to determine maximum concentration of IS217 peptide which is feasible in these pre-formulation i.e., maximum feasible concentration (MFC). Four different aqueous based pre-formulations of IS217 like 10% v/v Tween 20, 20% v/v glycerol, 10% PG v/v in 0.9% NaCl solution and 0.9% NaCl alone were prepared and were first subjected to stability study at intended use of temperature (RT) for about 24 hours. HPLC based assay method was used to evaluate the stability.\nOut of these, four aqueous based pre-formulation, 0.9% NaCl solution was selected for intravenous (IV) and intraperitoneal (IP) route and also the aqueous vehicle for co-solvent pre-formulation, based on its stability and suitability at physiological conditions. For subcutaneous (SC)/intramuscular route (IM), a co-solvent-based pre-formulation was developed. 10% propylene glycol (PG) in 0.9% NaCl solution was selected as pre-formulation for SC/IM. Maximum feasible concentration of IS217 in both the pre-formulations was greater than 50 mg/ml."}, "[5]": {"system": "TPA induced ear inflammation model in C57BL/6 mice", "experiment": "IS217 alone and in combination with methotrexate and betamethasone in TPA induced ear inflammation model", "format": "in vivo", "method": "The experimental procedure, doses and route of administration were same as IMQ model. Test item IS217 was administered subcutaneously either alone or in combination with standard methotrexate (MTX) and betamethasone (BD) to diseased animals."}, "[6]": {"system": "human endothelial cell line (EA.hy926)", "conditions": "EA.hy926, 1-5000 μg/ml, 72 h", "quoted_text": "Here MTT assay and BioTek Synergy HT multimode reader were used to determine the cell viability in test cells. […] Once within about 72 hours of incubation, re-treatment was done for test items at every 24 hours in 3 additions. 150 μl of DMSO was added to aspirated supernatant and observed at 540 nm using BioTek Synergy HT plate reader."}, "human plasma proteins [7]": {"system": "human plasma proteins", "quoted_text": "(§2) Test item at concentration of about 100 μg/ml was incubated with human plasma at 37° C. in water bath for about 1 hour. About 500 μL of test solution was transferred to ultrafiltration devices and centrifuged for about 15 minutes at about 13000 rpm and at 37° C. and analyzed using HPLC method."}, "[8]": {"conditions": "human, microsomes", "quoted_text": "(§3) Metabolic stability assay was performed to determine in vitro half-life and intrinsic clearance of test item. […] Following centrifugation, the supernatant was analyzed on HPLC-UV."}, "human plasma proteins [9]": {"system": "human plasma proteins", "experiment": "in vitro", "quoted_text": "as §2"}, "in vitro": {"experiment": "in vitro", "conditions": "human, microsomes", "quoted_text": "as §3"}, "[10]": {"conditions": "IS217 SC 1.2 mg/kg q.d., 10 days"}}, "note": "Like-named read-outs stand apart in the source and are kept apart here.", "data": [{"substance": "H-FAKKFAKKFK-OH [IS217, H-Phe-Ala-Lys-Lys-Phe-Ala-Lys-Lys-Phe-Lys-OH]", "values": [{"measurement": "inhibition of endothelial morphogenesis on matrigel", "setting": "[1]; Ea.hy.926, 500 μg/ml", "value": "Complete inhibition"}, {"measurement": "endothelial tube formation", "setting": "[1]; Ea.hy.926, all test concentrations 1 μg/ml to 1000 μg/ml", "value": "block endothelial tube formation"}, {"measurement": "induction of DNA fragmentation", "setting": "EA.hy926 cells; EA.hy926, 1000 μg/ml, 48 h", "value": 24.53, "unit": "%"}, {"measurement": "percentage of induction of DNA fragmentation", "setting": "EA.hy926 cells; EA.hy926, 2000 μg/ml and 5000 μg/ml", "value": "significant decrease"}, {"measurement": "inhibition of JAK-STAT pathway", "setting": "JAK-STAT pathway", "value": "No inhibition"}, {"measurement": "inhibition of MAPK1 (MEK 1)", "setting": "MAPK1 (MEK 1)", "value": "good inhibition"}, {"measurement": "inhibition of other kinases", "setting": "other kinases", "value": "Moderate to low inhibition"}, {"measurement": "mutagenicity (gene mutations at histidine locus)", "setting": "[2]", "value": "non mutagenic"}, {"measurement": "mean hemoglobin value compared with negative control and positive control", "setting": "[3]", "value": "non-significant"}, {"measurement": "mean haemolytic index", "setting": "[3]; red cells of rabbit", "value": 0, "unit": "%"}, {"measurement": "Maximum feasible concentration", "setting": "[4]; 0.9% NaCl solution (IV, IP pre-formulation)", "value": "greater than 50 mg/ml"}, {"measurement": "Maximum feasible concentration", "setting": "[4]; 10% propylene glycol in 0.9% NaCl solution (SC/IM pre-formulation)", "value": "greater than 50 mg/ml"}, {"measurement": "physical appearance of pre-formulations", "setting": "[4]; four aqueous pre-formulations, RT, 24 hours", "value": "no visual changes"}, {"measurement": "ear thickness (absolute, histopathology, ear punch biopsy)", "setting": "[5]; IS217 (1.2 mg/kg) < MTX (1.5 mg/kg), p < 0.01", "value": "Decreased ear"}, {"measurement": "edema and hyperkeratosis", "setting": "[5]; [10]", "value": "IS217 decreased"}, {"measurement": "inflammatory cytokines in ear homogenate (ELISA and histopathology score) IL-23, IL-6, TNF-α and MPO", "setting": "[5]; [10]", "value": "IS217 decreased"}, {"measurement": "inhibitory activity against TPA induced increase in ear thickness", "setting": "[5]; IS217 alone (SC 1.2 mg/kg q.d. per Table 6)", "value": 44.77, "unit": "%"}, {"measurement": "effect in combination with MTX", "setting": "[5]; TPA model combination study", "value": "good effect"}, {"measurement": "absolute ear thickness", "setting": "[5]; alone as well as in combination with standard drugs", "value": "significant reduction"}, {"measurement": "percentage inhibition of FBS induced proliferation of endothelial cells", "setting": "[6]", "value": "effective upto 2000 μg/ml only"}, {"measurement": "inhibition of healthy unstimulated cells (CC50 experiment)", "setting": "HUVEC", "value": "no inhibition"}, {"measurement": "inhibition of VEGF stimulated HUVEC cells", "setting": "HUVEC; VEGF stimulated", "value": "dose dependent inhibition"}, {"measurement": "binding affinity to human plasma proteins", "setting": "human plasma proteins [7]", "value": "moderate binding affinity"}, {"measurement": "metabolic stability", "setting": "[8]", "value": "moderately metabolically stable"}, {"measurement": "Shelf life of IS217 API", "value": "about 2 years"}, {"measurement": "appearance of reconstituted solution", "setting": "0.9% sodium chloride", "value": "clear and colourless"}, {"measurement": "Dissolution of the lyophilized powder completed in", "setting": "reconstitution with 0.9% sodium chloride", "value": "less than 2 minutes"}, {"measurement": "fraction unbound at 1 hour, 100 μg/ml", "setting": "human plasma proteins [9]", "value": 0.466}, {"measurement": "fraction unbound at 1 hour, 100 μg/ml", "setting": "human plasma proteins [9]; free fraction", "value": "0.466 ± 0.03"}, {"measurement": "half-life at 100 μg/ml", "setting": "in vitro", "value": 47.9, "unit": "min"}, {"measurement": "metabolised at 1 h, 100 μg/ml", "setting": "in vitro", "value": "~58", "unit": "%"}, {"measurement": "microsomal CLint at 100 μg/ml", "setting": "in vitro", "value": 14.5, "unit": "µL/min/mg"}]}]}
